Test results reported in PMC6364417, “Kinase inhibitor library screening identifies synergistic drug combinations effective in sensitive and resistant melanoma cells” (Journal of Experimental & Clinical Cancer Research : CR, 2019).
Where two headings read alike, the source gives them in different places. Each block holds one compound with its values, some of them ahead of it.

Assays:
[1] = test system: A375 cells (parental); assay: Dose-response curves and IC50, PrestoBlue cell viability, 72 h; type: cell-based, human; conditions: for IC50: read-out: Half-maximal inhibitory concentration value (IC50), Mean
[2] = test system: A375-XP cells (Vemurafenib-resistant); assay: as above; type: cell-based, human; conditions: n.e. = did not suppress growth below 50% in the tested concentration range; for IC50: read-out: Half-maximal inhibitory concentration value (IC50), Mean
[3] = test system: A375-GP cells (Dabrafenib-resistant); assay: as above; type: cell-based, human; conditions: n.e. = did not suppress growth below 50% in the tested concentration range; for IC50: read-out: Half-maximal inhibitory concentration value (IC50), Mean
[4] = test system: 501Mel cells (parental); assay: Kinase inhibitor library screening, PrestoBlue cell viability, 1 or 10 μM, 72 h; conditions: 501Mel Parental, 72 h, in %
How it was run: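 Readout: PrestoBlue signal on a monochromator plate reader, given as percent viability relative to untreated controls. Parental and drug-resistant (Vemurafenib XP, Dabrafenib GP) sublines were tested; at least duplicates per line.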

[5] = test system: 501Mel-GP cells (Dabrafenib-resistant); assay: as above; conditions: 501Mel GP, 72 h, in %
[6] = test system: 501Mel-XP cells (Vemurafenib-resistant); assay: as above; conditions: 501Mel XP, 72 h, in %
[7] = test system: A375 cells (parental); assay: as above; conditions: A375 Parental, 72 h
[8] = test system: A375-GP cells (Dabrafenib-resistant); assay: as above; conditions: A375 GP, 72 h
[9] = test system: A375-XP cells (Vemurafenib-resistant); assay: as above; conditions: A375 XP, 72 h
[10] = test system: IGR37 cells (parental); assay: as above; conditions: IGR37 Parental, 72 h, in %
[11] = test system: IGR37-GP cells (Dabrafenib-resistant); assay: as above; conditions: IGR37 GP, 72 h
[12] = test system: IGR37-XP cells (Vemurafenib-resistant); assay: as above; conditions: IGR37 XP, 72 h
[13] = n.e. = did not suppress growth below 50% in the tested concentration range

Structure (SMILES): CNC(=O)c1c(F)cccc1Nc1nc(Nc2cc3c(cc2OC)CCN3C(=O)CN(C)C)nc2[nH]ccc12 [GSK1838705A, reference compound]
cell viability, 501Mel Parental, 1μΜ ([4]; 1μΜ): 73.7
cell viability, 501Mel Parental, 10μΜ ([4]; 10μΜ): 0.4
cell viability, 501Mel GP, 1μΜ ([5]; 1μΜ): 75.8
cell viability, 501Mel GP, 10μΜ ([5]; 10μΜ): -0.19
cell viability, 501Mel XP, 1μΜ ([6]; 1μΜ): 70.4
cell viability, 501Mel XP, 10μΜ ([6]; 10μΜ): -0.3
cell viability, A375 Parental, 1μΜ ([7]; 1μΜ, in %): 68.1
cell viability, A375 Parental, 10μΜ ([7]; 10μΜ, in %): 12.8
cell viability, A375 GP, 1μΜ ([8]; 1μΜ, in %): 67.8
cell viability, A375 GP, 10μΜ ([8]; 10μΜ, in %): 10.4
cell viability, A375 XP, 1μΜ ([9]; 1μΜ, in %): 70.8
cell viability, A375 XP, 10μΜ ([9]; 10μΜ, in %): 11.1
cell viability, IGR37 Parental, 1μΜ ([10]; 1μΜ): 92.2
cell viability, IGR37 Parental, 10μΜ ([10]; 10μΜ): 1.2
cell viability, IGR37 GP, 10μΜ ([11]; 10μΜ): 2%
cell viability, IGR37 GP, 1μΜ ([11]; 1μΜ, in %): 73.7
cell viability, IGR37 XP, 10μΜ ([12]; 10μΜ): 1%
cell viability, IGR37 XP, 1μΜ ([12]; 1μΜ, in %): 42.8
IC50 [1, 13]: 1200 nM
IC50 [2]: 769 nM
IC50 [3]: 969 nM

Structure (SMILES): C[C@]1(O)C[C@@H](c2nc(-c3ccc4ccc(-c5ccccc5)nc4c3)c3c(N)nccn32)C1 [Linsitinib]
IC50 ([1]; Homo sapiens, A-375, n.e. = did not suppress growth below 50% in the tested concentration range): 4170 nM
IC50 ([2]; Homo sapiens): 2940 nM
IC50 ([3]; Homo sapiens): 2080 nM

Structure (SMILES): COc1ccc(-c2cc3c(C)nc(N)nc3n([C@H]3CC[C@H](OCCO)CC3)c2=O)cn1 [PF-04691502, reference compound]
Cell viability in kinase inhibitor library screening, 501Mel Parental, 1μΜ ([4]; 1μΜ): 21.9
Cell viability in kinase inhibitor library screening, 501Mel Parental, 10μΜ ([4]; 10μΜ): 0.8
Cell viability in kinase inhibitor library screening, 501Mel GP, 1μΜ ([5]; 1μΜ): 14.9
Cell viability in kinase inhibitor library screening, 501Mel GP, 10μΜ ([5]; 10μΜ): 0.379
Cell viability in kinase inhibitor library screening, 501Mel XP, 1μΜ ([6]; 1μΜ): 10.0
Cell viability in kinase inhibitor library screening, 501Mel XP, 10μΜ ([6]; 10μΜ): -0.224
Cell viability in kinase inhibitor library screening, A375 Parental, 10μΜ ([7]; 10μΜ): 2.9
Cell viability in kinase inhibitor library screening, A375 Parental, 1μΜ ([7]; 1μΜ): 25.2
Cell viability in kinase inhibitor library screening, A375 GP, 1μΜ ([8]; 1μΜ): 22.6
Cell viability in kinase inhibitor library screening, A375 GP, 10μΜ ([8]; 10μΜ): 3.9
Cell viability in kinase inhibitor library screening, A375 XP, 1μΜ ([9]; 1μΜ): 18.5
Cell viability in kinase inhibitor library screening, A375 XP, 10μΜ ([9]; 10μΜ): 3.3
Cell viability in kinase inhibitor library screening, IGR37 Parental, 1μΜ ([10]; 1μΜ): 38.6
Cell viability in kinase inhibitor library screening, IGR37 Parental, 10μΜ ([10]; 10μΜ): 5.0
Cell viability in kinase inhibitor library screening, IGR37 GP, 10μΜ ([11]; 10μΜ): 7.5%
Cell viability in kinase inhibitor library screening, IGR37 GP, 1μΜ ([11]; 1μΜ, in %): 50.6
Cell viability in kinase inhibitor library screening, IGR37 XP, 10μΜ ([12]; 10μΜ): 3.2%
Cell viability in kinase inhibitor library screening, IGR37 XP, 1μΜ ([12]; 1μΜ, in %): 22.1
IC50 [1, 13]: 298 nM
IC50 [2]: 191 nM
IC50 [3]: 254 nM

Second part, led by results:

Half-maximal inhibitory concentration value (IC50), Mean [2]: n.e.
Half-maximal inhibitory concentration value (IC50), Mean [3]: n.e.
Structure (SMILES): Cn1cnc2c(F)c(Nc3ccc(Br)cc3Cl)c(C(=O)NOCCO)cc21 [AZD6244]
Half-maximal inhibitory concentration value (IC50), Mean [1, 13]: n.e.

Half-maximal inhibitory concentration value (IC50), Mean [2]: n.e.
Half-maximal inhibitory concentration value (IC50), Mean [3]: n.e.
Structure (SMILES): CCN(CCCOc1ccc2c(Nc3cc(CC(=O)Nc4cccc(F)c4)n[nH]3)ncnc2c1)CCOP(=O)(O)O [Barasertib]
Half-maximal inhibitory concentration value (IC50), Mean [1, 13]: n.e.
